Reference: publication PMC7058083, “Structural basis of ligand binding modes at the human formyl peptide receptor 2” (Nature Communications, 2020)
Numbering of substitutions follows the chain as printed. Residues, ends and D or L forms follow the SMILES beside them. *: point of attachment. For = O=C*

Tests used:
Test in all cases: Competition binding of fMLFK with WK(FITC)YMVm, flow cytometry on HEK293F cells
[1] = molecular target: T1, wild-type (WT) and mutant FPR2 (Homo sapiens, UniProt P25090, E89G); details: FPR2 E89G; mean ± s.e.m., n=3; SEM
T1 construct: expressed in transfected cells; host or cells: HEK293F
T1 sequence (P25090 1-351 E89G): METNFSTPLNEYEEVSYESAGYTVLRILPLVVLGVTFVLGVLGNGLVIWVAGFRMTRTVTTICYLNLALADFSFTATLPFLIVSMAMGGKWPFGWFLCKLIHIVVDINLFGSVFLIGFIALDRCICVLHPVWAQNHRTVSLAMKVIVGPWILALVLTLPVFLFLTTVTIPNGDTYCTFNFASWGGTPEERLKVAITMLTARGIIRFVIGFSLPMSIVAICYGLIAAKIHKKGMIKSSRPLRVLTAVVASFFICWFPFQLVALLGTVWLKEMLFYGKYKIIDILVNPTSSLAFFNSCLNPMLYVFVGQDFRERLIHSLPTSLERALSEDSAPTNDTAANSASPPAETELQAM
Protocol: (§1) Flag-tagged wild-type and mutant FPR2s were cloned into the pTT5 vector and expressed in HEK293F cells. The cells were harvested, and washed with Hanks’ Balanced Salt Solution (HBSS) buffer supplemented with 0.5% bovine serum albumin and 20 mM HEPES, pH 7.4. The cells were then resuspended in the same buffer to the final concentration of 1 × 10^6 cells per ml. The cell-surface expression was measured as mentioned above. […] Mean fluorescent intensity of each well was then read by a FCM (flow cytometry) reader (Millipore). […] For competitive binding of fMLFK, cells were plated in 96-well plates (100,000 cells per well), and incubated with WK(FITC)YMVm at 4 °C for 1 h. The following concentrations of WK(FITC)YMVm were used: 10 nM (wild type, L81^2.60F, E89G, and V105^3.32A), 30 nM (D281^7.32G), 40 nM (H102^3.29F, V160^4.60A, L268^ECL3A, N285^7.36A, and F292^7.43A), and 100 nM (L164^4.64A and T177A). Then increasing concentrations of fMLFK (100 nM–1 mM) were added, and incubated for another 1 h on ice. Mean fluorescent intensity values were measured by flow cytometry. Data were analyzed using Prism 7.0.

[2] = molecular target: T2, wild-type (WT) and mutant FPR2 (Homo sapiens, UniProt P25090, T177A); details: FPR2 T177A; mean ± s.e.m., n=4; SEM
T2 construct: expressed in transfected cells; host or cells: HEK293F
T2 sequence (P25090 1-351 T177A): T1 sequence (P25090 1-351 E89G) with G89E, T177A
Protocol: as §1

[3] = molecular target: T3, wild-type (WT) and mutant FPR2 (Homo sapiens, UniProt P25090, H102F); details: FPR2 H102F; mean ± s.e.m., n=3; SEM
T3 construct: expressed in transfected cells; host or cells: HEK293F
T3 sequence (P25090 1-351 H102F): T1 sequence (P25090 1-351 E89G) with G89E, H102F
Protocol: as §1

[4] = molecular target: T4, wild-type (WT) and mutant FPR2 (Homo sapiens, UniProt P25090, V105A); details: FPR2 V105A; mean ± s.e.m., n=3; SEM
T4 construct: expressed in transfected cells; host or cells: HEK293F
T4 sequence (P25090 1-351 V105A): T1 sequence (P25090 1-351 E89G) with G89E, V105A
Protocol: as §1

[5] = molecular target: T5, wild-type (WT) and mutant FPR2 (Homo sapiens, UniProt P25090, L268A); details: FPR2 L268A; mean ± s.e.m., n=3; SEM
T5 construct: expressed in transfected cells; host or cells: HEK293F
T5 sequence (P25090 1-351 L268A): T1 sequence (P25090 1-351 E89G) with G89E, L268A
Protocol: as §1

pKi, competition binding [1]: 3.49 ± 0.31
pKi, competition binding [2]: 3.97 ± 0.21
pKi, competition binding [3]: 3.85 ± 0.24
pKi, competition binding [4]: 4.56 ± 0.21
pKi, competition binding [5]: 4.42 ± 0.15
Compound: CSCC[C@H](NC=O)C(=O)N[C@@H](CC(C)C)C(=O)N[C@@H](Cc1ccccc1)C(=O)N[C@@H](CCCCN)C(=O)O [fMLFK] (For-MLFK-OH)
